Results published in patent publication US8168667B2 (Galapagos NV, priority 2006, dated 2012).
Read-outs that look alike come from different tables or passages of the source.

Tests used:
[1] = system: castrated immature young rats; assay: Adapted model of Hershberger's test (levator ani and ventral prostate weight); format: in vivo, Sprague Dawley rats; conditions: Rattus norvegicus, po, 96 h
[2] = system: castrated C57/B16J male mice; assay: Model of osteoporosis in male mice (trabecular BMD of tibia); format: in vivo; conditions: Mus musculus, sc, 672 h, ORX mice, 30 mg/kg subcutaneously daily, day 1 to 28, ORX = 0%, SHAM = 100%, read-out: efficacy in protecting mineral bone density
Procedure: C57/B16J male mice aged 12 weeks and weighing approximately 20-25 g (Charles River, Les Oncins, FRANCE) were operated on as described above with regard to the rats. Castration mimicked the bone loss caused by androgen deficit. The aim of the study is to evaluate the capacity of the compounds to preserve and/or increase the bone mass. This is evaluated by measuring the bone mineral density (BMD). This model has previously been documented by Sims et al. 2003 J. Clin. Invest. 111(9):1319-27.
The animals were separated randomly into various groups and were kept in an environment at 22±2° C. with an alternating day/night cycle of 12 hours and ad libitum access to food and drink.
The tested compounds were administered from post-surgery day 1 and until day 28 preceding sacrifice (day 29). The mice were treated daily under the conditions defined below: • 1. SHAM control group: Vehicle (10/90 ethanol/corn oil mixture) administered subcutaneously. • 2. ORX control group: Vehicle (10/90 ethanol/corn oil mixture) administered subcutaneously. • 3. Treated ORX group: The tested compounds were administered individually subcutaneously in the vehicle described above, in a dose of 30 mg/kg.
During necropsy, the mice were first weighed then decapitated. The two hindlimbs were then carefully disarticulated at the femoral neck. The right hindlimb was frozen at −20° C. Densitometric quantitative analysis was performed on the trabecular portion of the tibia proximal metaphysis using a tomo densitometer (Stratec SA+, Hologic, Norland).
The average of the trabecular BMD of the mice in the ORX control group was defined as 0%. The average of the trabecular BMD of the mice in the SHAM control group was defined as 100%. The efficacy of each product as a percentage was calculated using the formula: (BMDtreated−BMDORX)/(BMDSHAM−BMDORX)×100
A subsequent ANOVA test was used for statistical analysis to identify the differences between groups.

[3] = read-out: anabolic protection efficacy with regard to levator ani
[4] = read-out: androgenic efficacy with regard to the prostate
[5] = ORX rats, 30 mg/kg per os, 4 successive days, ORX = 0%, SHAM = 100%, read-out: anabolic protection efficacy with regard to levator ani
[6] = ORX rats, 30 mg/kg per os, 4 successive days, ventral prostate, ORX = 0%, SHAM = 100%, read-out: androgenic efficacy with regard to the prostate

Compound | inhibition in vivo at 30 mg/kg [1, 3] | inhibition in vivo at 30 mg/kg [1, 4] | inhibition in vivo at 30 mg/kg [2] | inhibition in vivo at 30 mg/kg [1, 5] | inhibition in vivo at 30 mg/kg [1, 6]
C#CCN1C(=O)N(c2ccc(C#N)c(C(F)(F)F)c2)C(=O)C1(C)c1ccc(O)cc1 (stereo not drawn) [Example 6, 4-[2,5-dioxo-4-(4-hydroxyphenyl)-4-methyl-3-(2-propynyl)imidazolidin-1-yl]-2-trifluoromethylbenzonitrile] | 50 to 140% | 5 to 70% | 40 to 130% |  | 
CN1C(=O)N(c2ccc(C#N)c(C(F)(F)F)c2)C(=O)[C@@]1(C)c1ccc(O)cc1 [Example 155, (R)-4-[3,4-dimethyl-2,5-dioxo-4-(4-hydroxyphenyl)imidazolidin-1-yl]-2-trifluoromethylbenzonitrile] | 50 to 140% | 5 to 70% | 40 to 130% |  | 
CN1C(=O)N(c2ccc(Cl)c(Cl)c2)C(=O)C1c1ccc(O)cc1 (stereo not drawn) [Example 1, 1-(3,4-dichlorophenyl)-4-(4-hydroxyphenyl)-3-methylimidazolidine-2,5-dione] |  |  | 40 to 130% | 50 to 140% | 5 to 70%
C#CCN1C(=O)N(c2ccc(C#N)c(C(F)(F)F)c2)C(=O)C1c1ccc(O)cc1 (stereo not drawn) [Example 4, 4-[2,5-dioxo-4-(4-hydroxyphenyl)-3-(2-propynyl)imidazolidin-1-yl]-2-trifluoromethylbenzonitrile] | 50 to 140% | 5 to 70% | 40 to 130% |  | 
C=CCN1C(=O)N(c2ccc(Cl)c(Cl)c2)C(=O)C1c1ccc(O)cc1 (stereo not drawn) [Example 3, 1-(3,4-dichlorophenyl)-4-(4-hydroxyphenyl)-3-(2-propenyl)imidazolidine-2,5-dione] |  |  | 40 to 130% | 50 to 140% | 5 to 70%
CN1C(=O)N(c2ccc(C#N)c(C(F)(F)F)c2)C(=O)C1(C)c1ccc(O)cc1 (stereo not drawn) [Example 5, 4-[3,4-dimethyl-2,5-dioxo-4-(4-hydroxyphenyl)imidazolidin-1-yl]-2-trifluoromethylbenzonitrile] | 50 to 140% | 5 to 70% | 40 to 130% |  | 
CC#CCN1C(=O)N(c2ccc(C#N)c(C(F)(F)F)c2)C(=O)C1(C)c1ccc(O)cc1 (stereo not drawn) [Example 220, 4-[3-(2-butynyl)-4-(4-hydroxyphenyl)-4-methyl-2,5-dioxoimidazolidin-1-yl]-2-trifluoromethylbenzonitrile] | 50 to 140% | 5 to 70% | 40 to 130% |  | 
